For five molecules, EC50 results are on record in patent US20050234046A1 (Kalypsys, Inc., priority 2004, published 2005).

Common to all, as to experiment: Transient transfection (transactivation) assay in CV-1 cells, GAL4-PPAR chimera, luciferase reporter
Type in all cases: cell-based

Assay [1] has as its target T1, PPAR delta (Homo sapiens, UniProt Q03181).
T1 construct: expressed in transfected cells; host or cells: CV-1 cells
T1 sequence (Q03181 211-439 limits assumed): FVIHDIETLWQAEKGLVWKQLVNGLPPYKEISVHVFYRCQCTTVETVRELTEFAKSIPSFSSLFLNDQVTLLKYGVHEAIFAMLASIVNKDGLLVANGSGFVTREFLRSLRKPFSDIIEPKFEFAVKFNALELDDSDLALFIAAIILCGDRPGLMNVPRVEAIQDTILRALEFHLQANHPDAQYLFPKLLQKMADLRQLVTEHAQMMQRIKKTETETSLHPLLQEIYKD

In assay [2] the target is T2, PPAR alpha (Homo sapiens, UniProt Q07869).
T2 construct: expressed in transfected cells; host or cells: CV-1 cells
T2 sequence (Q07869 239-466 limits assumed): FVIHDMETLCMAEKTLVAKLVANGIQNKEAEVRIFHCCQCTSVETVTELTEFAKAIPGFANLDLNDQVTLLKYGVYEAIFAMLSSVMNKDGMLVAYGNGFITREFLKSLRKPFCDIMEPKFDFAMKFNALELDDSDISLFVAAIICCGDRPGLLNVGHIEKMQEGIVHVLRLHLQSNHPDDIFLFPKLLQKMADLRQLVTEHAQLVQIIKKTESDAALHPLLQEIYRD
The gist of the method:
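EC50 and efficacy come from a luciferase read-out after 20-24 hours of compound exposure (vehicle 1% DMSO) in transiently transfected CV-1 cells. These cells express a GAL4-PPAR ligand-binding-domain chimera plus a reporter with four or five GAL4 binding sites, and are kept in phenol-red free DME with 5% delipidated calf serum.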

The target in assay [3] is T3, PPAR gamma (Homo sapiens, UniProt P37231).
T3 construct: expressed in transfected cells; host or cells: CV-1 cells
T3 sequence (P37231 238-503 limits assumed): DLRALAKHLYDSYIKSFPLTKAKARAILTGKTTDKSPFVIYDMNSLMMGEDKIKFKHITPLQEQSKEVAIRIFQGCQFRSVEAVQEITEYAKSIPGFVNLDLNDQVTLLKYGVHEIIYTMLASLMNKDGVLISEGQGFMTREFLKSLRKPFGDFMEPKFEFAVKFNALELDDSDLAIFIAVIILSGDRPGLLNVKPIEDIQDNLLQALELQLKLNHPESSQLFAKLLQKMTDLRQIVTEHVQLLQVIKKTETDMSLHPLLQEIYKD

On to `Cc1cc(CC(=O)O)cc(S(=O)(=O)N2[C@H](C)CN(c3ccc(C(F)(F)F)cn3)C[C@@H]2C)c1` [Example 229, {3-[2,6-Dimethyl-4-(5-trifluoromethyl-pyridin-2-yl)-piperazine-1-sulfonyl]-5-methyl-phenyl}-acetic acid], for which the EC50 in assay [1] is below 5 µM; in assay [2], above 100 µM; in assay [3] it was above 100 µM.
In the case of `O=C(O)Cc1c(F)ccc(S(=O)(=O)N2CCN(c3ccc(C(F)(F)F)cn3)CC2)c1F` [Example 230, {2,6-Difluoro-3-[4-(5-trifluoromethyl-pyridin-2-yl)-piperazine-1-sulfonyl]-phenyl}-acetic acid], the EC50 in assay [1] is below 5 µM; in assay [2], 5 to 100 µM; in assay [3], 5 to 100 µM.
Regarding `C[C@@H]1CN(c2ccc(C(F)(F)F)cn2)C[C@H](C)N1S(=O)(=O)c1ccc(F)c(CC(=O)O)c1F` [Example 231, {3-[2,6-Dimethyl-4-(5-trifluoromethyl-pyridin-2-yl)-piperazine-1-sulfonyl]-2,6-difluoro-phenyl}-acetic acid], the EC50 in assay [1] is 5 to 100 µM; in assay [2], above 100 µM; in assay [3], above 100 µM.
Regarding `C[C@@H]1CN(c2ccc(OC(F)(F)F)cc2)C[C@H](C)N1S(=O)(=O)c1ccc(F)c(CC(=O)O)c1F` [Example 232, {3-[2,6-Dimethyl-4-(4-trifluoromethoxy-phenyl)-piperazine-1-sulfonyl]-2,6-difluoro-phenyl}-acetic acid], the EC50 was below 5 µM in assay [1], above 100 µM in assay [2] and above 100 µM in assay [3].
As for `Cc1cc(CC(=O)O)cc(S(=O)(=O)N2C3CCC2CN(c2ccc(OC(F)(F)F)cc2)C3)c1` [Example 233, {3-Methyl-5-[3-(4-trifluoromethoxy-phenyl)-3,8-diaza-bicyclo[3.2.1]octane-8-sulfonyl]-phenyl}-acetic acid], the EC50 is below 5 µM in assay [1], 5 to 100 µM in assay [2] and 5 to 100 µM in assay [3].
